Reference: the NIST ThermoML archive (doi:10.1021/acs.jced.7b01006)

Assay: xn = mol fraction of the nth substance listed
Conditions: 100 kPa, Liquid; for electrical conductivity: Alternating current cell with electrodes; for viscosity: Falling or rolling sphere viscometry; for mass density: Vibrating tube method

CCCCn1cc[n+](C)c1C.N#C[S-] [1-butyl-2,3-dimethylimidazolium thiocyanate] + CC#N
Conditions	electrical conductivity [S/m]	mass density [kg/m3]	viscosity [mPa·s]
288.15 K, x1 = 0.1001	4.72	888.99	16.94
288.15 K, x1 = 0.2004	4.01	951.31	38.93
288.15 K, x1 = 0.2999	3.35	995.07	67.12
288.15 K, x1 = 0.4003	1.19	1026.63	102.7
288.15 K, x1 = 0.5001	0.765	1038.63	145.4
288.15 K, x1 = 0.5999	0.599	1050.73	193.9
288.15 K, x1 = 0.6999	0.429	1062.95	249.1
288.15 K, x1 = 0.8002	0.358	1068.26	310.4
288.15 K, x1 = 0.9002	0.24	1075.99	377.8
288.15 K, x1 = 1	0.106	1084.2	452.7
293.15 K, x1 = 0.1001	5.01	885.19	11.74
293.15 K, x1 = 0.2004	4.34	948.02	27.08
293.15 K, x1 = 0.2999	3.71	991.9	46.77
293.15 K, x1 = 0.4003	1.45	1024	71.58
293.15 K, x1 = 0.5001	0.919	1036.16	100.9
293.15 K, x1 = 0.5999	0.728	1048.16	134.8
293.15 K, x1 = 0.6999	0.531	1060.42	172.9
293.15 K, x1 = 0.8002	0.458	1066.14	214.7
293.15 K, x1 = 0.9002	0.316	1073.56	260.4
293.15 K, x1 = 1	0.153	1081.11	311.3
298.15 K, x1 = 0.1001	5.31	881.36	8.229
298.15 K, x1 = 0.2004	4.69	944.6	18.85
298.15 K, x1 = 0.2999	4.05	988.57	32.07
298.15 K, x1 = 0.4003	1.71	1021.27	49.45
298.15 K, x1 = 0.5001	1.12	1033.49	69.9
298.15 K, x1 = 0.5999	0.891	1045.66	93.7
298.15 K, x1 = 0.6999	0.654	1057.9	119.9
298.15 K, x1 = 0.8002	0.57	1063.84	148.9
298.15 K, x1 = 0.9002	0.39	1071.37	181
298.15 K, x1 = 1	0.217	1078.2	218
303.15 K, x1 = 0.1001	5.61	877.5	5.854
303.15 K, x1 = 0.2004	5.03	941.34	12.95
303.15 K, x1 = 0.2999	4.42	985.32	22.58
303.15 K, x1 = 0.4003	2.01	1018.59	34.51
303.15 K, x1 = 0.5001	1.32	1030.79	49.24
303.15 K, x1 = 0.5999	1.06	1043.17	66.62
303.15 K, x1 = 0.6999	0.795	1055.17	85.89
303.15 K, x1 = 0.8002	0.697	1061.75	106.9
303.15 K, x1 = 0.9002	0.497	1068.94	130.3
303.15 K, x1 = 1	0.293	1075.18	157.9
308.15 K, x1 = 0.1001	5.92	873.64	4.393
308.15 K, x1 = 0.2004	5.36	938.14	9.306
308.15 K, x1 = 0.2999	4.79	982.11	16.16
308.15 K, x1 = 0.4003	2.34	1015.92	24.59
308.15 K, x1 = 0.5001	1.56	1028.06	34.95
308.15 K, x1 = 0.5999	1.26	1040.79	47.89
308.15 K, x1 = 0.6999	0.96	1052.69	62.82
308.15 K, x1 = 0.8002	0.853	1059.56	78.98
308.15 K, x1 = 0.9002	0.61	1066.57	97.33
308.15 K, x1 = 1	0.386	1072.16	118.9
313.15 K, x1 = 0.1001	6.23	869.75	3.257
313.15 K, x1 = 0.2004	5.7	934.72	6.633
313.15 K, x1 = 0.2999	5.15	978.72	11.34
313.15 K, x1 = 0.4003	2.67	1013.21	17.39
313.15 K, x1 = 0.5001	1.81	1025.43	25.45
313.15 K, x1 = 0.5999	1.48	1038.3	35.42
313.15 K, x1 = 0.6999	1.16	1050.1	46.81
313.15 K, x1 = 0.8002	1.03	1057.26	59.49
313.15 K, x1 = 0.9002	0.749	1064.3	73.79
313.15 K, x1 = 1	0.496	1069.15	90.46
318.15 K, x1 = 0.1001	6.53	865.95	2.458
318.15 K, x1 = 0.2004	6.03	931.41	4.722
318.15 K, x1 = 0.2999	5.52	975.35	8.162
318.15 K, x1 = 0.4003	3.03	1010.57	12.95
318.15 K, x1 = 0.5001	2.07	1022.69	18.62
318.15 K, x1 = 0.5999	1.73	1035.83	26.33
318.15 K, x1 = 0.6999	1.38	1047.6	35.55
318.15 K, x1 = 0.8002	1.23	1055.02	46.09
318.15 K, x1 = 0.9002	0.913	1061.87	57.94
318.15 K, x1 = 1	0.627	1066.16	72.04
323.15 K, x1 = 0.1001	6.83	862.09	1.882
323.15 K, x1 = 0.2004	6.37	927.98	3.578
323.15 K, x1 = 0.2999	5.89	972.17	5.904
323.15 K, x1 = 0.4003	3.4	1007.9	9.491
323.15 K, x1 = 0.5001	2.37	1020.14	13.67
323.15 K, x1 = 0.5999	2.01	1033.37	19.96
323.15 K, x1 = 0.6999	1.63	1045.21	27.68
323.15 K, x1 = 0.8002	1.46	1052.82	36.89
323.15 K, x1 = 0.9002	1.1	1059.62	46.83
323.15 K, x1 = 1	0.774	1063.2	57.11
